Tests used:
[1] = target: T1, E. coli Tat machinery (IMVs containing overproduced TatABC) (Escherichia coli, UniProt P69423+P69425+P69428); experiment: In vitro Tat transport assay of pre-SufI into IMVs, ATP as energy source; type: biochemical; conditions: hit compound 100 μM
Method: (§1) To directly test for inhibition of Tat transport, a gel-based in vitro Tat transport assay was performed using pre-SufI, an authentic Tat precursor protein [7]. In short, this assay consists of incubating a Tat substrate and a Δψ-generating energy source with inverted membrane vesicles (IMVs) containing overproduced TatABC, digesting remaining external protein with a protease, and then analyzing via SDS-PAGE. This assay was run twice using NADH and ATP (if warranted) as energy sources to generate the necessary Δψ. NADH generates a Δψ using respiratory proteins (i.e., the NADH dehydrogenase and cytochrome bo3 ubiquinol oxidase complexes) and ATP generates a Δψ by reversal of ATP synthase. A true Tat inhibitor would survive both assays. In contrast, a respiration inhibitor is expected to reduce Tat transport when only one of the two energy sources is used (except for an ionophore).
(§2) Fig 8 Effect of Hits from the Local HTS on In Vitro Tat Transport. (A) Tat transport assays of pre-SufI using NADH to generate a Δψ. […] Samples were treated with the protease proteinase K, run on SDS-PAGE, and analyzed by in-gel fluorescence imaging. Assays were run in duplicate. Band intensity corresponds to the amount of protein transported into the IMV lumen. The following 7 compounds survived this screen: 1^JS, 51^JS, 55^JS, 111^JS, 181^JS, 202^JS, and 140^JS (boxed in red). (B) Tat transport assays of pre-SufI using ATP to generate a Δψ. All 7 compounds surviving the screen in (A) were tested using a Tat transport assay performed identically to those in (A) except that ATP (1 mM) was used in place of NADH. […]
(§3) Isolation of inverted membrane vesicles (IMVs), Western blot analyses and purification of pre-SufI-IAC were performed as described previously. […] The presence of a Δψ was determined by measuring oxonol VI fluorescence in presence of Tat^+ IMVs (A280 = 0.5), as described previously, except that the translocation buffer lacked BSA. Steady-state fluorescence spectra and fluorescence intensities of whole cells producing mCherry proteins were determined with an SLM-8100 spectrofluorometer.

[2] = target: T1, E. coli Tat machinery (IMVs containing overproduced TatABC); experiment: In vitro Tat transport assay of pre-SufI into IMVs, NADH as energy source; type: biochemical; conditions: hit compound 100 μM
[3] = system: E. coli Tat machinery (IMVs containing overproduced TatABC); experiment: as above; type: biochemical, Escherichia coli; conditions: out of 22 independent assays by three different people
Method: as §1
Fig 8 Effect of Hits from the Local HTS on In Vitro Tat Transport. (A) Tat transport assays of pre-SufI using NADH to generate a Δψ. Inverted membrane vesicles (IMVs; A280 = 5.0), the fluorescent substrate pre-SufI-IAC^Atto565 (90 nM), and NADH (4 mM) were incubated at 37°C for 30 min with DMSO (control) or with hit compound (20 μM). Samples were treated with the protease proteinase K, run on SDS-PAGE, and analyzed by in-gel fluorescence imaging. Assays were run in duplicate. Band intensity corresponds to the amount of protein transported into the IMV lumen. The following 7 compounds survived this screen: 1^JS, 51^JS, 55^JS, 111^JS, 181^JS, 202^JS, and 140^JS (boxed in red). (B) Tat transport assays of pre-SufI using ATP to generate a Δψ. All 7 compounds surviving the screen in (A) were tested using a Tat transport assay performed identically to those in (A) except that ATP (1 mM) was used in place of NADH. Compound 55^JS was eliminated by this assay—the other 6 compounds survived (boxed in red). (C) Chemical structure of compound 55^JS, N-(4,7-Dioxo-4,7-dihydro-2,1,3-benzoxadiazol-5-yl)acetamide.
Isolation of inverted membrane vesicles (IMVs), Western blot analyses and purification of pre-SufI-IAC were performed as described previously. Western blots were performed using rabbit anti-mCherry antibodies (1:10,000 dilution) in the presence of 0.1% Triton X-100 and 0.1% Tween 20. The pre-SufI-IAC protein was labeled with Atto565 maleimide, and the resultant fluorescent protein, pre-SufI-IAC^Atto565, was used as a substrate for the in vitro Tat transport assays (A280 = 5.0), as described previously. The presence of a Δψ was determined by measuring oxonol VI fluorescence in presence of Tat^+ IMVs (A280 = 0.5), as described previously, except that the translocation buffer lacked BSA. Steady-state fluorescence spectra and fluorescence intensities of whole cells producing mCherry proteins were determined with an SLM-8100 spectrofluorometer.
Supplementary file pone.0149659.s003.tiff: S3 Fig IC50's for Hit Compound 181^JS. (A) The total cellular mCherry fluorescence (live cell assay; n = 1), (B) the in vitro NADH-dependent Tat transport efficiency of pre-SufI (n = 1), and (C) the maximum transmembrane electrical potential gradient (n = 1) were measured for a range of concentrations of compound 181^JS (S2E Fig). (D) SDS-PAGE gel showing in-gel fluorescence data used in (B). For (A), cells expressing spTorA-mCherry-SsrA were grown under Tat^++ conditions in a 384-well plate in the presence of 0, 0.08, 0.15, 0.3, 0.63, 1.25, 2.5, 5, 10, 20, or 40 μM compound 181^JS, as described for the HTS assay (see Methods). For (B) and (C), IMVs were incubated with the same concentrations of compound 181^JS prior to initiation of Tat transport and Δψ generation by the addition of NADH, as described previously. The red curves are best-fits using y = d + (100-d)/(1+(x/IC50)^b), where b is a slope factor and d is the high concentration asymptote. (TIFF) Click here for additional data file.

[4] = system: E. coli Tat machinery (IMVs containing overproduced TatABC); experiment: In vitro Tat transport assay of pre-SufI into IMVs, ATP as energy source; type: biochemical, Escherichia coli; conditions: hit compound 100 μM
Method: as §1, §2, §3

[5] = system: E. coli Tat machinery (IMVs containing overproduced TatABC); experiment: In vitro Tat transport assay of pre-SufI into IMVs, NADH as energy source; type: biochemical, Escherichia coli; conditions: hit compound 100 μM

T1 sequence (P69423 2-258): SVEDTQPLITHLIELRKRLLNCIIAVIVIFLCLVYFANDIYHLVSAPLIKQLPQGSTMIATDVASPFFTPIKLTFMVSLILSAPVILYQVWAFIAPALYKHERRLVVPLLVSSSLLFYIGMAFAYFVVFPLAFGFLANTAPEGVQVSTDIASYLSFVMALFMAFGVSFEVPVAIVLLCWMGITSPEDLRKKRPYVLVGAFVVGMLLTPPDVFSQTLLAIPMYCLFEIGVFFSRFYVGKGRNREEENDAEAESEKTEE
T1 sequence (P69425 whole entry): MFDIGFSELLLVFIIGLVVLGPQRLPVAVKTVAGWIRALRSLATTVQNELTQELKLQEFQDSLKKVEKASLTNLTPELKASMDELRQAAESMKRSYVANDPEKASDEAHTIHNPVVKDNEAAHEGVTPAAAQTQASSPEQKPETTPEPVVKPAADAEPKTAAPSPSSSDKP
T1 sequence (P69428 whole entry): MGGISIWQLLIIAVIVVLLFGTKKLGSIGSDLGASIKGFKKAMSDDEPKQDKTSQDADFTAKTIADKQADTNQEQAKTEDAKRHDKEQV

| Compound | outcome of ATP-dependent in vitro Tat transport screen (survival = visible inhibition of Tat transport) [1] | outcome of NADH-dependent in vitro Tat transport screen (survival = visible inhibition of Tat transport) [2] | number of assays in which Tat transport was inhibited [3] [times] | outcome of ATP-dependent in vitro Tat transport screen (survival = visible inhibition of Tat transport) [4] | outcome of NADH-dependent in vitro Tat transport screen (survival = visible inhibition of Tat transport) [5] |
| --- | --- | --- | --- | --- | --- |
| N#CC1c2ccccc2-n2nncc2CN1Cc1cc(Cl)cc(Cl)c1 (centres unmarked) [21^NIH, 5-[(3,5-dichlorophenyl)methyl]-4,6-dihydrotriazolo[1,5-a][1, 4]benzodiazepine-6-carbonitrile] | survived | survived |  |  |  |
| Oc1cc(Cl)ccc1Oc1ccc(Cl)cc1Cl [Compound 18^NIH, 5-Chloro-2-(2,4-dichlorophenoxy)phenol] |  |  | 12 | survived | survived |
